Patent publication US5023254A, “Aminoalkylindoles, their production, and pharmaceutical preparations based thereon” (Schering Aktiengesellschaft, priority 1988, dated 1991)
Where “and” joins values, the source holds several entries; their conditions need not be identical. Identical values can stand only once.

How the values were obtained:
mouse uterus [1] = test: Uterotrophic test on infantile mouse (estrogen activity); format: in vivo; parameters: unit not given here
Description: (§1) This test is fully described in Cancer Treatment Reviews 1984, 11, 147, and J.Med.Chem., 1984, 27, 1439.

mouse uterus [2] = test: Antiuterotrophic test on infantile mouse (anti-estrogen activity); format: in vivo; parameters: Antiuterotrophic Test Rel. uterus wgt / Antiuterotrophic Test Action (rel. uterus wgt): unit not given here; conditions: for inhibition in vivo at 0.125 mg: Mus musculus; for inhibition in vivo at 0.125 mg / inhibition in vivo at 0.005 mg / inhibition in vivo at 0.025 mg / inhibition in vivo at 0.625 mg: read-out: Antiuterotrophic Test Inhib. (%); for Antiuterotrophic Test Rel. uterus wgt / inhibition in vivo at 0.005 mg / inhibition in vivo at 0.025 mg / Antiuterotrophic Test Action (rel. uterus wgt) / inhibition in vivo at 0.625 mg: infantile mouse; for inhibition in vivo at 0.005 mg: dose 5 ug (per animal); for inhibition in vivo at 0.025 mg: dose 25 ug (per animal)
Description: as §1

estrogen receptor = biological target: T1, estrogen receptor (Bos taurus, UniProt P49884); test: relative binding affinity (RBA) for the estrogen receptor from calf uterus, displacement of 3H-17β estradiol; conditions: for affinity for the estrogen receptor (in words): in comparison with estradiol; for RBA (relative binding affinity for the estrogen receptor): calf uterus, relative to 17 beta estradiol = 100
T1 construct: estrogen receptor from calf uterus; from tissue; host or cells: calf uterus
T1 sequence (P49884 1-596): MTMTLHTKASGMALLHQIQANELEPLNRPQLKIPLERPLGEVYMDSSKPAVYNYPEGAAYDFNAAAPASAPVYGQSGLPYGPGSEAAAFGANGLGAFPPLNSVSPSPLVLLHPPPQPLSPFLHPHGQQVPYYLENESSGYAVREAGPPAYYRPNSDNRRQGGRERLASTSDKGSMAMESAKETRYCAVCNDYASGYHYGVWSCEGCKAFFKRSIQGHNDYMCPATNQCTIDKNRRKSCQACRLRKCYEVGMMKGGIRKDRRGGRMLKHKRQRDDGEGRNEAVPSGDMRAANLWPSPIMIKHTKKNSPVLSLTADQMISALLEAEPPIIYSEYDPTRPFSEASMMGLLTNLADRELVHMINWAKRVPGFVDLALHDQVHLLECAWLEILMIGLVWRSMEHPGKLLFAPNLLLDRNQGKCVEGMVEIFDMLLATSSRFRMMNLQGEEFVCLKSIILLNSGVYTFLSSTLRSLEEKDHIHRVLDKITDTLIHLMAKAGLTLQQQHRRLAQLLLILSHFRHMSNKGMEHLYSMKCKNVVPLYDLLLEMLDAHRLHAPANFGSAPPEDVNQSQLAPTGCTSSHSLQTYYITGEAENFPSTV
Description: *Relative binding affinities for the estrogen receptor from calf uterus,

[3] = tested on: human MCF-7 breast cancer cells; test: growth of hormone-dependent human MCF-7 breast cancer cells, cell count; format: cell-based; conditions: Homo sapiens, MCF7, read-out: Cell Count (% T/C); for activity at 10 µM: MCF-7, 1 × 10^-5 M; for activity at 1 µM: MCF-7, 1 × 10^-6 M; for activity at 0.1 µM: MCF-7, 1 × 10^-7 M; for activity at 5 µM: MCF-7, 5 × 10^-6 M; for activity at 0.5 µM: MCF-7, 5 × 10^-7 M
Description: The test protocol for the research is fully described in Eur.J. Cancer Clin. Oncol.

| SMILES | inhibition in vivo at 0.125 mg (mouse uterus [2]) | inhibition in vivo at 0.005 mg (mouse uterus [2]) | inhibition in vivo at 0.025 mg (mouse uterus [2]) | affinity for the estrogen receptor (in words) (estrogen receptor) | RBA (relative binding affinity for the estrogen receptor) (estrogen receptor) | activity at 10 µM [3] | activity at 1 µM [3] | activity at 0.1 µM [3] | Uterotrophic Test Action (rel. uterus wgt) (mouse uterus [1]; dose 5 ug/animal) | Uterotrophic Test Action (rel. uterus wgt) (mouse uterus [1]; dose 25 ug/animal) | Antiuterotrophic Test Action (rel. uterus wgt) (mouse uterus [2]; dose 5 ug/animal) | Antiuterotrophic Test Action (rel. uterus wgt) (mouse uterus [2]; dose 25 ug/animal) | other results |
| --- | --- | --- | --- | --- | --- | --- | --- | --- | --- | --- | --- | --- | --- |
| Cc1c(-c2ccc(O)cc2)n(CCCCCCN)c2ccc(O)cc12 [Compound 2, 5-Hydroxy-2-(4-hydroxyphenyl)-3-methyl-1-[6-amino-hexyl]-indole] | 99% | 68% | 102% | greatest affinity | – | – | – | – | – | – | – | – | Uterotrophic Test Rel. uterus wgt (mouse uterus [1]; dose 1 ug): 10.9 ± 4.7; Uterotrophic Test Rel. uterus wgt (mouse uterus [1]; dose 5 ug): 12.0 ± 2.2; Uterotrophic Test Rel. uterus wgt (mouse uterus [1]; dose 25 ug): 12.4 ± 2.7; Uterotrophic Test Rel. uterus wgt (mouse uterus [1]; dose 125 ug): 16.9 ± 2.7; Antiuterotrophic Test Rel. uterus wgt (mouse uterus [2]; dose 5 ug): 30.0 ± 9.1; Antiuterotrophic Test Rel. uterus wgt (mouse uterus [2]; dose 25 ug): 15.1 ± 1.2; Antiuterotrophic Test Rel. uterus wgt (mouse uterus [2]; dose 125 ug): 16.2 ± 2.7 |
| CNCCCCCCn1c(-c2ccc(O)cc2)c(C)c2cc(O)ccc21 [Compound 3, 5-Hydroxy-2-(4-hydroxyphenyl)-3-methyl-1-[6-methylamino-hexyl]-indole] | 59% | 49% | 43% | greatest affinity | 27 | – | – | – | – | – | – | – | Uterotrophic Test Rel. uterus wgt (mouse uterus [1]; dose 1 ug): 14.2 ± 3.1; Uterotrophic Test Rel. uterus wgt (mouse uterus [1]; dose 5 ug): 22.8 ± 8.6; Uterotrophic Test Rel. uterus wgt (mouse uterus [1]; dose 125 ug): 34.0 ± 6.3; Antiuterotrophic Test Rel. uterus wgt (mouse uterus [2]; dose 5 ug): 38.1 ± 8.2; Antiuterotrophic Test Rel. uterus wgt (mouse uterus [2]; dose 25 ug): 41.0 ± 8.5; Antiuterotrophic Test Rel. uterus wgt (mouse uterus [2]; dose 125 ug): 33.8 ± 2.4 |
| Cc1c(-c2ccc(O)cc2)n(CCCCCCN(C)C)c2ccc(O)cc12 [Compound 4, 5-Hydroxy-2-(4-hydroxyphenyl)-3-methyl-1-[6-dimethyamino-hexyl]-indole] | – | – | – | – | 12 | – | – | – | – | – | – | – | – |
| Oc1ccc(-c2cc3cc(O)ccc3n2CCCCCCN2CCCC2)cc1 [Compound 5, 5-Hydroxy-2-(4-hydroxyphenyl)-1-[6-pyrrolidino-hexyl]-indole] | – | – | – | – | 2.3 | – | – | – | – | – | – | – | – |
| Oc1ccc(-c2cc3cc(O)ccc3n2CCCCCCN2CCCCC2)cc1 [Compound 7, 5-Hydroxy-2-(4-hydroxyphenyl)-1-[6-piperidino-hexyl]-indole] | – | – | – | least affinity | 1.3 | – | – | – | – | – | – | – | – |
| Cc1c(-c2ccc(O)cc2)n(CCCCCCN2CCCCC2)c2ccc(O)cc12 [Compound 8, 5-Hydroxy-2-(4-hydroxyphenyl)-3-methyl-1-[6-piperidino-hexyl]-indole] | – | – | – | greatest affinity | 23 | 38% | 44% | 48% | – | – | – | – | – |
| Cc1c(-c2ccc(O)cc2)n(CCCCCCCCN2CCCC2)c2ccc(O)cc12 [Compound 9, 5-Hydroxy-2-(4-hydroxyphenyl)-3-methyl-1-[8-pyrrolidino-octyl]-indole] | – | – | – | – | 7.6 | – | – | – | – | – | – | – | – |
| Cc1c(-c2ccc(O)cc2)n(CCCCCCN2CCOCC2)c2ccc(O)cc12 [Compound 10, 5-Hydroxy-2-(4-hydroxyphenyl)-3-methyl-1-[6-morpholino-hexyl]-indole] | 102% | 8% | 18% | – | 10 | 36% | 52% | 75% | – | – | – | – | Uterotrophic Test Rel. uterus wgt (mouse uterus [1]; dose 1 ug): 21.2 ± 3.9; Uterotrophic Test Rel. uterus wgt (mouse uterus [1]; dose 5 ug): 19.5 ± 6.9; Uterotrophic Test Rel. uterus wgt (mouse uterus [1]; dose 25 ug): 21.8 ± 11.3; Uterotrophic Test Rel. uterus wgt (mouse uterus [1]; dose 125 ug): 17.4 ± 1.7; Antiuterotrophic Test Rel. uterus wgt (mouse uterus [2]; dose 5 ug): 51.2 ± 7.5; Antiuterotrophic Test Rel. uterus wgt (mouse uterus [2]; dose 25 ug): 47.7 ± 8.4; Antiuterotrophic Test Rel. uterus wgt (mouse uterus [2]; dose 125 ug): 18.0 ± 4.8 |
| CCN(CC)CCCCCCn1c(-c2ccc(O)cc2)c(C)c2cc(O)ccc21 [Compound 11] | 50% | 11% | 8% | – | 14 | – | – | – | 24.8 ± 11.7 | 14.7 ± 4.3 | 51.3 ± 4.9 | 52.1 ± 8.9 | Uterotrophic Test Action (rel. uterus wgt) (mouse uterus [1]; dose 625 ug/animal): 36.4 ± 17.6; Antiuterotrophic Test Action (rel. uterus wgt) (mouse uterus [2]; dose 625 ug/animal): 43.7 ± 7.4; inhibition in vivo at 0.625 mg (mouse uterus [2]; dose 625 ug/animal): 37% |
| Cc1c(-c2ccc(O)cc2)n(CCCCCCNCc2ccccc2)c2ccc(O)cc12 [Compound 12, 1-(6-Benzylaminohexyl)-5-hydroxy-2-(4-hydroxyphenyl)-3-methyl-indole] | 51% | 25% | 43% | – | 15 | 41% | 46% | 47% | 17.8 ± 4.6 | 23.6 ± 2.5 | 53.2 ± 9.0 | 44.6 ± 7.1 | Antiuterotrophic Test Action (rel. uterus wgt) (mouse uterus [2]; dose 625 ug/animal): 41.8 ± 7.4; inhibition in vivo at 0.625 mg (mouse uterus [2]; dose 625 ug/animal): 49% |
| Cc1c(-c2ccc(O)cc2)n(CCCCCC(=O)N2CCCC2)c2ccc(O)cc12 [Compound 16, 5-Hydroxy-2-(4-hydroxyphenyl)-3-methyl-1-(6-pyrrolidinocarbonylpentyl)-indole] | 53% | 10% | 29% | – | 7 | 42.1 ± 4% | 47.1 ± 3.7% | 57.2 ± 4.4% | 18.2 ± 2.3 | 16.5 ± 2.4 | 47.5 ± 10.9 | 42.0 ± 7.0 | Uterotrophic Test Action (rel. uterus wgt) (mouse uterus [1]; dose 625 ug/animal): 35.3 ± 10.7; Antiuterotrophic Test Action (rel. uterus wgt) (mouse uterus [2]; dose 625 ug/animal): 40.7 ± 3.9; inhibition in vivo at 0.625 mg (mouse uterus [2]; dose 625 ug/animal): 44%; activity at 5 µM [3]: 44 ± 3.6%; activity at 0.5 µM [3]: 48.2 ± 5.4% |
| Cc1c(-c2ccc(O)cc2)n(CCCCCC(=O)N2CCCCC2)c2ccc(O)cc12 [Compound 17, 5-Hydroxy-2-(4-hydroxyphenyl)-3-methyl-1-(6-piperidinocarbonylpentyl)-indole] | 59% | 6% | 22% | – | 19 | 86.5 ± 8.3% | 96 ± 7.7% | 89 ± 10.8% | 17.7 ± 3.2 | 16.3 ± 3.0 | 48.7 ± 9.1 | 42.9 ± 4.7 | Uterotrophic Test Action (rel. uterus wgt) (mouse uterus [1]; dose 1 ug/animal): 23.8 ± 2.8; activity at 5 µM [3]: 99.6 ± 7.6%; activity at 0.5 µM [3]: 95.5 ± 10.2% |
| C[C@]12CC[C@@H]3c4ccc(O)cc4CC[C@H]3[C@@H]1CCC2=O [Estrone, reference compound] | – | – | – | – | – | – | – | – | – | – | – | – | Uterotrophic Test Rel. uterus wgt (mouse uterus [1]; estrone 0.4 ug): 45.8 ± 6.2 and 59.8 ± 20.0 and 53.4 ± 3.6 and 43.0 ± 7.2 and 54.2 ± 12.1; Antiuterotrophic Test Rel. uterus wgt (mouse uterus [2]; estrone alone 0.4 ug): 54.2 ± 12.1 |
